The nature of data set [1]: Cytotoxicity by flow cytometry with propidium iodide. The data set is classed as cell-based. Particulars: human. The text has this: To study the effects of procyanidins on PRL-1 and PRL-3 in cells, the trimeric catechin (procyanidin C2, 9) was chosen as a representative example due to its strong inhibitor activity in vitro toward both PRL-s and its smaller size compared to the higher oligomers, which could influence cell permeability. HEK293 cells stably overexpressing PRL-1 and PRL-3 were chosen as model cell line. As a control cell line, HEK293 cells transfected with the empty vector were utilized (see the Experimental Procedures). To avoid false positive results due to cell death, first cell viability was studied in a concentration dependent manner by using flow cytometry. Therefore, cells were treated with different concentrations of compound 9 for 24 h, harvested, and then the ratio of living to dead cells was determined using propidium iodide (Fig 5).
Fig 5 Cytotoxicity of procyanidin C2 (9) in HEK293 cells. Cells were treated with 50, 150 or 300 μM of 9 in the growth medium for 24 h. Cells were harvested, resuspended in PBS buffer and incubated with propidium iodide (1 mg/mL) for 5 min on ice. 10,000 events were set for the number of living cells. The number of living cells was divided by the number of total cells counted and given as percentage of cell survival. Data represent means ± standard errors of the mean (n = 3).
Fig 7 A) Cytotoxicity of procyanidin B3 (8) in HEK293 cells. Cells were treated with 50, 75 or 100 μM of 8 in the growth medium for 24 h. Cells were harvested, resuspended in PBS buffer and incubated with propidium iodide (1 mg/mL) for 5 min on ice. 10,000 events were set for the number of living cells. The number of living cells was divided by the number of total cells counted and given as percentage of cell survival. Data represent means ± standard errors of the mean (n = 3). B) Wound healing abilities of PRL-1 or PRL-3 overexpressing or empty vector control HEK293 cell lines were analyzed in the presence of compound 8 or medium only. Cells were seeded at a concentration of 800,000 cells per insert and procyanidin B3 (8) was added at a concentration of 50 and 75 μM. Speed of migration is shown for combined data from different replicates, as mean ± SD (n = 40–77). Two-sided t-tests with Welsh correction were performed for p < 0.05. ns = not significant;***: < 0.001; **: < 0.01; *: < 0.05.
Flow cytometry was used to determine the ratio of living to dead cells compared to the control. HEK293 empty vector and PRL-3 overexpressing cells were seeded in a transparent 6-well plate with 400,000 cells/well in DMEM medium without Phenol red, supplemented with 10% FBS, 1% glutamine and 0.2% hygromycin and blasticidin. For induction of PRL-3 expression, 0.1% tetracycline was added. After 24 hours incubation at 37°C, procyanidins 8 or 9 dissolved in growth medium and growth medium as a control were added to the respective wells in the indicated final concentrations and incubated for another 24 hours. Then, the medium was removed and collected in Eppendorf tubes, centrifuged for 5 min at 500 rpm and the supernatant removed. Then 1 mL of PBS (10%) was added to each well and the cells detached with a cell scraper. […] After thorough mixing the cell suspension was injected into a LSR- Fortessa Bench Top Analyzer (Beckton Dickinson) and the number of living and dead cells counted. […] The number of living cells was divided by the number of total cells counted and given as percentage of cell survival.
Background: A flow cytometer gives signals particle by particle.

Data set [2] concerns the target T1, TCPTP (Homo sapiens, UniProt P17706).
T1 construct: made in house
T1 sequence (P17706 1-415): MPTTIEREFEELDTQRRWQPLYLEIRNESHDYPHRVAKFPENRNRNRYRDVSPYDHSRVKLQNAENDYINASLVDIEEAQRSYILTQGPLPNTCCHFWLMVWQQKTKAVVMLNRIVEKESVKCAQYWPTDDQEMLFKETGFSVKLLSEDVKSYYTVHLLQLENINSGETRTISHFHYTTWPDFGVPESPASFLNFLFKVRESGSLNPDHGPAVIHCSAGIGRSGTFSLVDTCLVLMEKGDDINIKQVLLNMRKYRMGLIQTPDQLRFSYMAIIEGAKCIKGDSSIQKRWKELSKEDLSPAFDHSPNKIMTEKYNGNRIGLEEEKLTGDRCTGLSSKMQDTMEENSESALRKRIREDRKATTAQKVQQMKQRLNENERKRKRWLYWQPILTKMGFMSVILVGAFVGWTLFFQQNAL
As to the kind of experiment: DiFMUP assay for PTP1B, TCPTP, VHR. Format: biochemical. Particulars: 12.5 μM, 30 min incubation, 20 μM DiFMUP, 50 nM enzyme. The procedure:
(§1) As an extension of our studies we included PTP1B, VHR and TCPTB as examples for phosphotyrosine specific phosphatases in our activity studies, because tea extracts were reported to inhibit PTP1B [43]. For comparison with PRL-3, these proteins were used in the same concentration (50 nM) as PRL-3 and DiFMUP was also used as a substrate in 20 μM concentration. The enzymes were incubated with three different concentrations of procyanidin C2 (9) for 30 min before the measurement.
(§2) Fig 3 Effect of procyanidin C2 (9) on the phosphatase activity of VHR, PTP1B and TCPTP using DiFMUP as a substrate. Proteins were incubated with compound 9 for 30 min., phosphatase activity measurements were performed using 20 μM DiFMUP. Phosphatase activity in the absence of compound 9 was set as 100%. Data represent means ± standard errors of the mean (n = 3).
(§3) DiFMUP assay for PTP1B, TCPTP, VHR: In a final reaction volume of 100 μL the PTPs (50 nM final concentration) were incubated with […] of procyanidin C2 (9) for 30 minutes at 25°C. The buffer conditions were pH 7.2, 4-/2-Hydroxyethyl)-1-piperazineethanesulfonic acid (HEPES) 25 mM, EDTA 2.5 mM, DTT 2.0 mM, NaCl 124.4 mM. After the incubation time 20 μL DiFMUP was added to reach a final concentration of 20 μM. On a Tecan safire2 (Tecan, Salzburg, Austria) plate reader dephosphorylation of the substrate to its fluorescent product was monitored by following the emission at […] for 10 minutes. All measurements were done in triplicates, and the experiments were repeated at least three times. The slopes of the initial phases were obtained by linear regression of the data points. The normalized reaction rates were plotted versus the log of the inhibitor concentrations and the IC50 values were obtained by fitting the curves using the one site competition model of GraphPad Prism (GraphPad Software, Version 5). Due to the high water solubility of 9 DMSO was not required and measurements were done in assay buffer only.

Data set [3] addresses T2, VHR (Homo sapiens, UniProt P51452).
T2 construct: made in house
As to the kind of experiment: DiFMUP assay for PTP1B, TCPTP, VHR. The data set is classed as biochemical. Particulars: 12.5 μM, 30 min incubation, 20 μM DiFMUP, 50 nM enzyme. The procedure:
as §1, §2, §3

T2 sequence (P51452 whole entry, species assumed): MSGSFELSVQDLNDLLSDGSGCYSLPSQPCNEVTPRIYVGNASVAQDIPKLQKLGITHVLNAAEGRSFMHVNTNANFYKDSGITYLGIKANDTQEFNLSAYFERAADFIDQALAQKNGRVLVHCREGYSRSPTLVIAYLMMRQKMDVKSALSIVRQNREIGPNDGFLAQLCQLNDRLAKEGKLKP

What is called viability is the share of living cells, or the viability signal relative to a control. Turning to `Oc1cc(O)c2c(c1)O[C@H](c1ccc(O)c(O)c1)[C@@H](O)[C@@H]2c1c(O)cc(O)c2c1O[C@H](c1ccc(O)c(O)c1)[C@@H](O)[C@@H]2c1c(O)cc(O)c2c1O[C@H](c1ccc(O)c(O)c1)[C@@H](O)C2` [Procyanidin C2 (9), Procyanidin C2], in data set [1], the viability at 24 h, 150 µM was about 50% and the viability at 24 h, 300 µM is about 50%. The “TCPTP phosphatase activity compared to the control” value in data set [2] was 75–85%. In data set [3], the “VHR phosphatase activity compared to the control” value is 75–85%.
